Test results from patent US20230416248A1, “COMPOUNDS AND USES THEREOF” (Foghorn Therapeutics Inc., priority 2020, published 2023).
pIC50: −log10 of the molar value. Like-named read-outs stand apart in the source and are kept apart here.

Key:
BRM = target: T1, BRM (Homo sapiens, UniProt P51531); test: ATPase catalytic activity of BRM, ADP-Glo in vitro biochemical assay; details: for pIC50: 30 nM BRM, 400 μM ATP; for Ratio* (BRG1 IC50 (μM) divided by BRM IC50 (μM)): selectivity ratio BRG1 IC50 / BRM IC50
T1 construct: made in house; host or cells: High Five insect cells
T1 sequence (P51531 whole entry): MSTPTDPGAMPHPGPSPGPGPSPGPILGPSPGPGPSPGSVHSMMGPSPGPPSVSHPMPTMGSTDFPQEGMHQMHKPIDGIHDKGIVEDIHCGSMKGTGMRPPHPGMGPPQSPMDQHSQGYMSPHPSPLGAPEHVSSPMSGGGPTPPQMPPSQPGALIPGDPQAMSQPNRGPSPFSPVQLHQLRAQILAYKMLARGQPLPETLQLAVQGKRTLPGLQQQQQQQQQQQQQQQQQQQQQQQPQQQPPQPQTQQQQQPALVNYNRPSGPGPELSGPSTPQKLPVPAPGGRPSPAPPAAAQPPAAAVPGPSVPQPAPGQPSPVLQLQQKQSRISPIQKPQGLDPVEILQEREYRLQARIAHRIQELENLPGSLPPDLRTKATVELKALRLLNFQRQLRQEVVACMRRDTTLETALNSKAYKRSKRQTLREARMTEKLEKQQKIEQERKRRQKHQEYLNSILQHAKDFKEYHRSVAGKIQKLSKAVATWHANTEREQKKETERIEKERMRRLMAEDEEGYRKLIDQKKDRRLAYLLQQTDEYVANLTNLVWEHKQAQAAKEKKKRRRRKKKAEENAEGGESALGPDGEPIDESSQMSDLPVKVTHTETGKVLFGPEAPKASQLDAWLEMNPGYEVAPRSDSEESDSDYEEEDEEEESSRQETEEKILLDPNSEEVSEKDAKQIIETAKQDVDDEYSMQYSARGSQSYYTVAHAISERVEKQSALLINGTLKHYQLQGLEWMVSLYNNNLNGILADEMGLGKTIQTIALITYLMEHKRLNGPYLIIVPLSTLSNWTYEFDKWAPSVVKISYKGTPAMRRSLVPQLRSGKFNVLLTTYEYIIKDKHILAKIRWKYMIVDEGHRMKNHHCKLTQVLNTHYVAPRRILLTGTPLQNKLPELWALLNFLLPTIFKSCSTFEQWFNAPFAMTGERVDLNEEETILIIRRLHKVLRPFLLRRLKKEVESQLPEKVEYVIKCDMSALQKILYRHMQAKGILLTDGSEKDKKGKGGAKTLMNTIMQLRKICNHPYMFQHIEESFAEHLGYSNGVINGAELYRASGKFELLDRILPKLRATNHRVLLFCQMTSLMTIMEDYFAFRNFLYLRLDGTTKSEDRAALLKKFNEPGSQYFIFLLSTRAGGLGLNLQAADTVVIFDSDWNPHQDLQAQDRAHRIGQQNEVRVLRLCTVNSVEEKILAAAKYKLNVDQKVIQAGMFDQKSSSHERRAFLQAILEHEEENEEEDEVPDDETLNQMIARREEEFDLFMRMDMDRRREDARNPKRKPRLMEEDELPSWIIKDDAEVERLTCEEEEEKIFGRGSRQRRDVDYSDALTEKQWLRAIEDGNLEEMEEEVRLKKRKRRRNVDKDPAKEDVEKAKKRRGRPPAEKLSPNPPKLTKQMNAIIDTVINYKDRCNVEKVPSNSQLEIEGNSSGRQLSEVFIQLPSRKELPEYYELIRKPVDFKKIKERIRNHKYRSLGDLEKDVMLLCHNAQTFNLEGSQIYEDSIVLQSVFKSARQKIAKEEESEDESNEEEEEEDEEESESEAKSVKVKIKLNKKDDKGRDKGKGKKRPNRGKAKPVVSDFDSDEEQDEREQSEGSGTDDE
Outline: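 ADP-Glo luminescence, after depletion of leftover ATP and conversion of ADP, reported the activity. The 1 h room-temperature reaction held 400 μM ATP, 20 nM salmon sperm DNA and 30 nM BRM in 20 mM Tris pH 8, 20 mM MgCl2, 50 mM NaCl, 0.1% Tween-20, 1 mM DTT.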

BRG-1 = target: T2, BRG-1 (Homo sapiens, UniProt P51532); test: ATPase catalytic activity of BRG-1, ADP-Glo in vitro biochemical assay; details: 30 nM BRG-1, 400 μM ATP, read-out: BRG1 IC50
T2 construct: made in house; host or cells: High Five insect cells
T2 sequence (P51532 whole entry): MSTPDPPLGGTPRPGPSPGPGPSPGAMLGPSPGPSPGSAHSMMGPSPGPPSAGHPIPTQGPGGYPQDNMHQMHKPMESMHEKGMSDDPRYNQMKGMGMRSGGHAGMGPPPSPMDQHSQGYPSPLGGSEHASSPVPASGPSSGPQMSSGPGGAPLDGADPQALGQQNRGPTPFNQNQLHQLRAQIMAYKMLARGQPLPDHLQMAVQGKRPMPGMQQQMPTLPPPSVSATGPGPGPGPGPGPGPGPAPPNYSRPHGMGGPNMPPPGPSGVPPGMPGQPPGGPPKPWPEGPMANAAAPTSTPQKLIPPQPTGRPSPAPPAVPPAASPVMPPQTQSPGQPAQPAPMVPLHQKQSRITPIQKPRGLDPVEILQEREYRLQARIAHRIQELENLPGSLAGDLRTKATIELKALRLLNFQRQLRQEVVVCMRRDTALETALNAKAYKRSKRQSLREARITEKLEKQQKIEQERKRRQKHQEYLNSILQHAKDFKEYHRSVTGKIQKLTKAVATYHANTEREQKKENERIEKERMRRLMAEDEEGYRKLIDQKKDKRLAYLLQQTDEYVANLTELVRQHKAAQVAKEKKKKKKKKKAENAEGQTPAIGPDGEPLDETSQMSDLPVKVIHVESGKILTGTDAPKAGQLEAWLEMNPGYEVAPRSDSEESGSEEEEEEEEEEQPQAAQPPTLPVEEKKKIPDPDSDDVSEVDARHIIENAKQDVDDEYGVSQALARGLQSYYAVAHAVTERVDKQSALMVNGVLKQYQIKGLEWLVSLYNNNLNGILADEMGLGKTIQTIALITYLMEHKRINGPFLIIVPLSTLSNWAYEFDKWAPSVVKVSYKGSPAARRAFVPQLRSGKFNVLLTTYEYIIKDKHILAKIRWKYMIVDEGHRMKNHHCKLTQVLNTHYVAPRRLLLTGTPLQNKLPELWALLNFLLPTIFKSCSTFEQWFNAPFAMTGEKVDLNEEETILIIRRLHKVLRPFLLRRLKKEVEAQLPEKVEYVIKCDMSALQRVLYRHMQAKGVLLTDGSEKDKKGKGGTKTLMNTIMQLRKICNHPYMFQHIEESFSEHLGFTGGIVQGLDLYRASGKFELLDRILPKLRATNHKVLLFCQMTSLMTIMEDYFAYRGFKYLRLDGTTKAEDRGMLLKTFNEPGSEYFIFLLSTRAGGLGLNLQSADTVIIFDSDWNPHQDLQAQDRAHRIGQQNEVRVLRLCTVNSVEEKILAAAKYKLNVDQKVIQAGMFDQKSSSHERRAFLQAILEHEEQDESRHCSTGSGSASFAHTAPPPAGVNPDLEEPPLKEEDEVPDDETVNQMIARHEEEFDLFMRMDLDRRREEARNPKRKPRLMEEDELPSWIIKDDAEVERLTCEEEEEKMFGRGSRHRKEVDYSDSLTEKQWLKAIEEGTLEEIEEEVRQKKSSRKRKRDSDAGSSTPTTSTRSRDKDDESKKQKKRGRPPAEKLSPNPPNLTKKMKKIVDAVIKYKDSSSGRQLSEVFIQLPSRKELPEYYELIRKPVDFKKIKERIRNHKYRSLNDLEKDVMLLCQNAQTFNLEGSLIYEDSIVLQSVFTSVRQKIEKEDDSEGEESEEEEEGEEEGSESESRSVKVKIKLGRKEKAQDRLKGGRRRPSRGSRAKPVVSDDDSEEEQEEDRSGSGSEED
Outline: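 Once the ATPase reaction finished, leftover ATP was depleted over 40 minutes at room temperature. Generated ADP was next turned back into ATP during a 60-minute room-temperature step. Luciferase-derived light was then measured.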

[1] = ATPase catalytic activity, ADP-Glo

SMILES	pIC50 (BRM; ADP-Glo ATPase assay)	Ratio* (BRM; ratio BRG1 IC50 / BRM IC50)	pIC50 (BRG-1; ADP-Glo ATPase assay)	Ratio* (BRG1 IC50 (μM) divided by BRM IC50 (μM)) (BRM)	pIC50 (BRM; [1])	Ratio* (BRM; ratio of BRG1 IC50 to BRM IC50)	pIC50 (BRG-1; [1])
COCc1ccc(C(=O)NCc2cc3nc(-c4cncc(C5CC5)n4)ccc3cn2)cc1S(C)(=O)=O [Compound 273]	6.92		5.55	23.47			
O=C(NCc1cc2nc(-c3ccccc3Cl)ccc2cn1)c1ccc2c(c1)S(=O)(=O)CCOC2 [Compound 247]	6.49		5.70	6.16			
CCN(CCOC)c1cccc(-c2ccc3cnc(CNC(=O)c4ccc5c(c4)S(=O)(=O)CCOC5)cc3n2)n1 [Compound 73]	8.17		7.10	11.74			
C[C@H]1COCc2ccc(C(=O)NCc3cc4nc(-c5cccc([C@@H]6CC6(F)F)n5)ccc4cn3)cc2S1(=O)=O [Compound 393]					7.72	33.52	6.19
Cc1cc(C(=O)NCc2cc3nc(-c4cccc(N5C[C@@H](C)O[C@@H](C)C5)n4)ccc3cn2)cc2c1COCCS2(=O)=O [Compound 101]	8.10		7.24	7.32			
O=C(NCc1cc2nc(-c3cncc(C4CC4)n3)ccc2cn1)c1ccc2c(c1)S(=O)(=O)CCCO2 [Compound 302]	6.56		5.63	8.50			
CN1CCc2c(-c3ccc4cnc(CNC(=O)c5ccc6c(c5)S(=O)(=O)CCOC6)cc4n3)cccc21 [Compound 233]	7.11		5.97	14.01			
O=C(NCc1cc2nc(-c3cccc(OC(F)F)c3)ccc2cn1)c1ccc2c(c1)S(=O)(=O)CCOC2 [Compound 278]	7.13		5.72	25.91			
C[C@H]1COCc2ccc(C(=O)NCc3cc4nc(-c5cccc(C6CC6)n5)ccc4nn3)cc2S1(=O)=O [Compound 423]					7.82	32.23	6.31
O=C(NCc1cc2nc(-c3ccc(F)c(OC(F)F)n3)ccc2cn1)c1ccc2c(c1)S(=O)(=O)CCOC2 [Compound 137]	7.65		6.42	16.99			
O=C(NCc1cc2nc(-c3cccc(N4CCC4)n3)ccc2cn1)c1ccc2c(c1)S(=O)(=O)CCOC2 [Compound 304, N-[[2-[6-(azetidin-1-yl)-2-pyridyl]-1,6-naphthyridin-7-yl]methyl]-1,1-dioxo-3,5-dihydro-2H-4,1λ6-benzoxathiepine-8-carboxamide]	8.03		6.87	14.43			
[2H]C([2H])([2H])N(c1cccc(-c2ccc3cnc(CNC(=O)c4ccc5c(c4)S(=O)(=O)CCOC5)cc3n2)n1)C([2H])([2H])[2H] [Compound 291]	7.99		7.01	9.47			
C[C@H]1CN(c2cccc(-c3ccc4cnc(CNC(=O)c5ccc6c(c5)S(=O)(=O)CCOC6)cc4n3)n2)CCO1 [Compound 223]	8.16		7.30	7.16			
COCCn1ccc2c(-c3ccc4cnc(CNC(=O)c5ccc6c(c5)S(=O)(=O)CCOC6)cc4n3)ccnc21 [Compound 336]					8.18	16.08	6.97
CCN(c1cccc(-c2ccc3cnc(CNC(=O)c4cc(F)c5c(c4)S(=O)(=O)CCOC5)cc3n2)n1)C1CC1 [Compound 338]					7.70	10.88	6.66

Next, values leading:

pIC50 (BRM; ADP-Glo ATPase assay)	Ratio* (BRM; ratio BRG1 IC50 / BRM IC50)	pIC50 (BRG-1; ADP-Glo ATPase assay)	Ratio* (BRG1 IC50 (μM) divided by BRM IC50 (μM)) (BRM)	pIC50 (BRM; [1])	Ratio* (BRM; ratio of BRG1 IC50 to BRM IC50)	pIC50 (BRG-1; [1])	SMILES
6.18	6.87	5.34					COc1ccc(-c2ccc3cnc(CNC(=O)c4ccc5c(c4)S(=O)(=O)CCOC5)cc3n2)nc1 [Compound 850]
				8.03	14.96	6.86	N#Cc1ccc2c(c1)N(c1ccc3cnc(CNC(=O)c4ccc5c(c4)S(=O)(=O)CCOC5)cc3n1)CCC2 [Compound 558]
				7.88	13.32	6.75	O=C(NCc1cc2nc(N3CCC4(CC4)c4cccnc43)ccc2cn1)c1ccc2c(c1)S(=O)(=O)CCOC2 [Compound 600]
				7.25	6.61	6.43	COc1cccc2c1CCN2c1ccc2cnc(CNC(=O)c3ccc4c(c3)S(=O)(=O)CCOC4)cc2n1 [Compound 647]
				7.29	21.62	5.95	C[C@@H]1CN(c2nccc(-c3ccc4cnc(CNC(=O)c5ccc6c(c5)S(=O)(=O)[C@@H](C)COC6)cc4n3)c2F)C[C@H](C)O1 [Compound 610]
7.71	19.41	6.42					O=C(NCc1cc2nc(N3CCOc4cc(C5(C(F)F)CC5)cnc43)ccc2cn1)c1ccc2c(c1)S(=O)(=O)CCOC2 [Compound 847]
				7.32	3.92	6.72	CC(F)(F)CN1CCOc2c(-c3ccc4cnc(CNC(=O)c5ccc6c(c5)S(=O)(=O)CCOC6)cc4n3)cccc21 [Compound 479]
				8.27	9.59	7.29	COc1ccc2c(c1)OCCN2c1ccc2cnc(CNC(=O)c3ccc4c(c3)S(=O)(=O)CCOC4)cc2n1 [Compound 548]
8.07	11.90	6.99					CC1(c2cnc3c(c2)OCCN3c2ccc3cnc(CNC(=O)c4ccc5c(c4)S(=O)(=O)CCOC5)cc3n2)CC1 [Compound 712]
8.06	7.77	7.17					COc1cncc2c1CCCN2c1ccc2cnc(CNC(=O)c3ccc4c(c3)S(=O)(=O)CCOC4)cc2n1 [Compound 761]
8.28	8.52	7.34					CN(C)c1cnc2c(c1)OCCN2c1ccc2cnc(CNC(=O)c3ccc4c(c3)S(=O)(=O)CCOC4)cc2n1 [Compound 763]
7.85	14.28	6.69					O=C(NCc1cc2nc(N3CCOc4cc(C5CCC5)cnc43)ccc2cn1)c1ccc2c(c1)S(=O)(=O)CCOC2 [Compound 753]
7.87	14.38	6.71					O=C(NCc1cc2cc(N3CCOc4ccc(C5CC5)cc43)ccc2cn1)c1ccc2c(c1)S(=O)(=O)CCOC2 [Compound 787]
8.09	12.88	6.98					CN(C)c1cc2c(cn1)N(c1ccc3cnc(CNC(=O)c4ccc5c(c4)S(=O)(=O)CCOC5)cc3n1)CCO2 [Compound 803]
8.28	9.97	7.27					O=C(NCc1cc2nc(N3CCCc4ccc(OCC5CCOC5)cc43)ccc2cn1)c1ccc2c(c1)S(=O)(=O)CCOC2 (centres unmarked) [Compound 759]
7.26		6.18					COc1cc2c(cc1F)CCCN2c1ccc2cnc(CNC(=O)c3ccc4c(c3)S(=O)(=O)CCOC4)cc2n1 [Compound 714]
				8.24	12.62	7.13	O=C(NCc1cc2nc(N3CCOc4cc(C5CC5)cnc43)ccc2cn1)c1ccc2c(c1)S(=O)(=O)CCOC2 [Compound 503]
8.23	5.10	7.52					O=C(NCc1cc2cc(N3CCCc4cc(-c5cn[nH]c5)ccc43)ccc2cn1)c1ccc2c(c1)S(=O)(=O)CCOC2 [Compound 789]
				7.61	11.79	6.53	CO[C@H]1CCN(c2cccc(-c3ccc4cnc(CNC(=O)c5ccc6c(c5)S(=O)(=O)CCOC6)cc4n3)n2)C[C@H]1C [Compound 437]
